Assay results reported in US20250099420A1, “SMALL MOLECULE MODULATORS OF GPR139 COMPLEX” (University of Florida Research Foundation, Incorporated, priority 2022, published 2025).

Tests used:
[1] = tested on: parental HEK cells; assay: HEK parental Antagonist Counterscreen Assay (non-transfected cells, acetylcholine control); type: cell-based; details: for EC50: Homo sapiens, HEK293, acetylcholine as control, scientific notation, molarity
Excerpt: C. […] The HEK parental counterscreen utilized the same cells but not transfected with the plasmid. The agonist and antagonist modes were run the same way as the primary screen but acetylcholine was used in place of GPR139 agonist as the control compound.
The HEK parental counterscreen utilized the same cells but not transfected with the plasmid. The antagonist modes assays utilized the cells being plated in the 1536 well plate overnight in growth media prior to dye loading in PDL coated plates and acetylcholine was used in place of GPR139 agonist as the control compound.
The HEK parental counterscreen utilized the same cells but not transfected with the plasmid. Acetylcholine was used in place of GPR139 agonist as the control compound. The cells were plated overnight, similar to the HEK antagonist counterscreen protocol.
The HEK parental counterscreens utilized the same cells but not transfected with the plasmid. Acetylcholine was used in place of GPR139 agonist as the control compound. The cells were plated overnight, similar to the HEK antagonist counterscreen protocol.
For each test compound, percent activation was plotted against compound concentration. A four parameter equation describing a sigmoidal dose-response curve was then fitted with adjustable baseline using Assay Explorer software (Symyx Technologies Inc.).

[2] = molecular target: T1, GPR139 (Homo sapiens, UniProt Q6DWJ6); assay: GPR139 Agonist titration / agonist counterscreen assay (calcium detection, HEK-GPR139 cells); type: cell-based; design: expressed in transfected cells; host or cells: HEK Aequorin cells, Maxcyte transient transfection; details: agonist counterscreen of the antagonists; for EC50: scientific notation, molarity, read-out: GRP139 Agonist activity EC50
T1 sequence (Q6DWJ6 1-353): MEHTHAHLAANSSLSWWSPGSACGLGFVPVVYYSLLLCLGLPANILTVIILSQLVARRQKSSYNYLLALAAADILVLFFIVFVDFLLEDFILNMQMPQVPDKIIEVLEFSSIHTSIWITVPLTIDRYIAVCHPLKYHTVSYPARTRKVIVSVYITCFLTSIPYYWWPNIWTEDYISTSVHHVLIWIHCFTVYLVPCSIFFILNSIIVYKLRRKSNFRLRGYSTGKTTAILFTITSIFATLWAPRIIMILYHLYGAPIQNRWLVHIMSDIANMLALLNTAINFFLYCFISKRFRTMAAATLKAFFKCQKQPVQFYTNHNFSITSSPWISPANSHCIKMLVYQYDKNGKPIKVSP
Experimental: GPR activity was assessed using a calcium detection assay. […] Negative control samples were treated with DMSO. […] Intracellular calcium was measured using Calcium 5.

[3] = molecular target: T1, GPR139; assay: GPR139 Antagonist titration assay (calcium detection, HEK-GPR139 cells, vs EC80 of S-JNJ-63533054); details: for GPR139 Antagonist Activity Averaged Max % Response (±St. Dev.): activity relative to known control; for GPR139 Antagonist Activity Lipophilic Efficiency (logD): based on logD; for GPR139 Antagonist Activity Lipophilic Efficiency (logP): based on logP; for GPR139 Antagonist Activity Hill Slope: fitted dose-response curve
[4] = molecular target: T1, GPR139; assay: [3H]JNJ-63533054 radioligand competition binding assay on membranes of HEK293T/17 cells; design: HA signal peptide (HASP) (N); expressed in transfected cells; host or cells: HEK293T/17 cells (membrane preparation); details: for inhibition at 10 µM: 10 μM of the indicated compound, (10 μM) JNJ-63533054 as printed in title; for Ki: Ki=IC50/(1+C/Kd), membranes of HEK293T/17 cells expressing human GPR139, read-out: Ki ± SEM
Excerpt: Eighteen compounds were selected for additional study. The compounds were re-synthesized and tested in radioligand binding competition assays for their ability to displace [^3H]-labeled reference agonist JNJ-63533054 on GPR139. The GPR139 construct used (pCDNA3.1-HASP-HA-GPR139) contained an N-terminal HA signal peptide (HASP), followed by an HA tag and human GPR139 (NM_001002911.4). HEK293T/17 cells were maintained in Dulbecco's modified Eagle's medium with 10% (v/v) fetal bovine serum, nonessential amino acids, and 1 mM sodium pyruvate.
Competition binding assay: Radioligand binding assay used human GPR139 expressed in HEK293T/17 cells. HEK293T/17 cells were transfected pCDNA3.1-HASP-HA-GPR139. 48 h after, cells were detached from plates by pipetting with PBS, centrifuged at 500×g for 5 min, and then the fluid was aspirated away. The cell pellets were frozen with liquid nitrogen and stored at −80° C. Pellets were homogenized in TE buffer (50 mM Tris-HCl, pH 7.4, 5 mM EDTA) and centrifuged at 1000×g at 4° C. for 5 min. Supernatant was collected and recentrifuged at 30,000×g at 4° C. for 30 min. The pellet was rehomogenized in TE buffer and incubated for 60 minutes at room temperature with eight concentrations of [^3H]JNJ-63533054 (specific activity 24.7 Ci/mmol) ranging from 0.024 nM to 400 nM. The binding reaction was terminated by filtration through GF/C filter (Waterman) followed by washes with cold TE buffer. Filters were dried in a hood overnight followed by the addition of scintillation fluid. Bound radioactivity was counted on a Hidex 600 liquid scintillation counter. […] Nonspecific binding was determined with 10 μM JNJ-63533054. The Kd values of the radioligands and IC50 of the antagonist were calculated by Graphpad Prism. Ki values were calculated as Ki=IC50/(1+C/Kd), where C is concentration of the radioligand.
Various concentrations of selected ligands were then added in the presence of 10 nM [^3H]-JNJ-63533054 and their ability to displace [^3H]labeling on cellular membranes was assessed. FIGS. 3B and 3C present representative data obtained in these experiments. […] The results of these experiments are presented in the Table 3 and confirm selective binding the compounds to GPR139 thereby validating their interaction with the intended target.

SMILES	HEK antagonist activity Averaged Max % Response (±St. Dev.) [1] [%]	EC50 [1] [µM]	GRP139 Agonist activity Averaged Max % Response (±St. Dev.) [2]	EC50 [2] [µM]	EC50 [3] [µM]	GPR139 Antagonist Activity Ligand Efficiency [3]	GPR139 Antagonist Activity Averaged Max % Response (±St. Dev.) [3] [%]	GPR139 Antagonist Activity Lipophilic Efficiency (logD) [3]	GPR139 Antagonist Activity Lipophilic Efficiency (logP) [3]	GPR139 Antagonist Activity Hill Slope [3]	inhibition at 10 µM [4] [%]	Ki [4] [µM]
Nc1cccc(C(=O)Nc2cc(O)n(-c3c(Cl)cc(Cl)cc3Cl)n2)c1 [SR-01000514922]	16.24 ± 5.67	> 14.7	1.17 ± 6.37%	> 14.7	8.6	0.28	80.63 ± 3.57	1.63	0.55	0.70	21.8 ± 14.1	0.92 ± 0.02
CN1CCN(S(=O)(=O)c2ccc(Sc3ccc(Cl)cc3)c([N+](=O)[O-])c2)CC1 [SR-07000003837-2 analog 2]											51.9 ± 5.47	1.29 ± 0.03
O=C(CS(=O)(=O)c1ccccc1)Nc1ccc(Oc2ccccc2)cc1 [SR-01000263867]	20.24 ± 7.73	> 14.1	4.67 ± 4.93%	> 14.1	2.1	0.31	84.30 ± 2.68	1.99	1.99	0.99	59.3 ± 7.51	4.91 ± 1.1
Cc1cccc(NC(=O)CCC(=O)OCc2ccc(Br)cc2)c1 [SR-01000258561]	50.40 ± 13.43	13.8	45.23 ± 2.15%	> 14.1	2.3	0.34	102.3 ± 0.93	1.45	1.45	1.14	35.6 ± 21.2	7.14 ± 0.16
COc1ccc(-c2cccc(NS(=O)(=O)c3ccc(I)cc3)c2)nn1 [SR-01000914310]	26.24 ± 12.88	> 14.1	7.64 ± 5.47%	> 14.1	6	0.29	72.33 ± 6.63	1.70	1.56	1.00	72.2 ± 2.78	1.06 ± 0.02
O=C(Nc1cccc(-c2nnco2)c1)C1c2ccccc2Oc2ccccc21 [SR-01000907648-1 analog]											65.5 ± 0.72	6.07 ± 0.14
O=C(NCCC1=CCCCC1)N1c2ccccc2Sc2ccccc21 [SR-01000452455-1 analog]											107 ± 1.95	1.68 ± 0.04
CC(=O)Nc1ccc(Sc2ccc(S(=O)(=O)Nc3ccc(C)cc3C)cc2[N+](=O)[O-])cc1 [SR-07000003837-2 analog 1]											88.7 ± 21.1	9.45 ± 0.21
COc1ccc(OC)c(NC2=C(Cl)C(=O)N(c3ccccc3C)C2=O)c1 [SR-01000228964]	24.51 ± 4.86	> 14.1	−2.6E+0 ± 5.18 ^ %	> 14.1	2.9	0.30	82.24 ± 3.16	2.79	2.79	1.53		
Cc1cc(C)c(NC(=O)c2ccc(Br)cc2)c(C)c1NC(=O)c1ccc(Br)cc1 [SR-01000512383]	33.99 ± 7.44	> 8.9	6.60 ± 4.93%	> 8.9	2.2	0.27	58.56 ± 7.31	−1.6E+0	−1.6E+0	1.46		
COc1ccc(C(C(=O)NC(C)c2ccccc2)(c2ccccc2)c2ccccc2)cc1 (stereo not drawn) [SR-01000529482]	16.45 ± 6.46	> 10.8	3.89 ± 5.42%	> 10.8	7.9	0.22	56.80 ± 4.90	−1.1E+0	−1.1E+0	0.94		
Cc1ccc(Oc2ccc(OCC(=O)N3C(C)CCCC3C)cc2)cc1 (stereo not drawn) [SR-01000445554]	26.51 ± 5.44	> 13.6	28.29 ± 7.43%	> 13.6	> 4.5	0.29	80.54 ± 5.09	0.71	0.71			
COc1cccc(OC)c1C(=O)Oc1ccc2c(=O)c(-c3ccc(Cl)cc3)c(C(F)(F)F)oc2c1 [SR-01000471218]	69.47 ± 1.93	10.1	19.55 ± 6.15%	> 10.5	1.1	0.24	90.79 ± 3.84	−130.5E−3	−130.5E−3	1.41		
